These results are taken from patent publication US6087355A, “Cephalosporin antibiotics” (Microcide Pharmaceuticals, Inc., priority 1996, dated 2000).

Converted amounts (≈) assume the structure as drawn. Some results are limits rather than exact numbers.

One assay relates to E. faecalis ATCC 29212. As to the kind of experiment: In vitro MIC, agar dilution. The format is cell-based. The settings on record: Enterococcus faecalis, ATCC29212, read-out: minimum inhibitory concentration (MIC). In short, it runs like this:
(§1)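 Test agent, dissolved in PBS pH 7.2 with Tween 20 or DMSO if needed, was mixed into molten Mueller-Hinton agar over a two-fold series topping at 128 μg/mL. Log-phase isolates were then spot-inoculated at ~10^4 cfu and incubated at 35-36 °C for 16-20 hours.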

In a further assay the test system is E. faecalis VanB(Van^R). As to the kind of experiment: In vitro MIC, agar dilution. The format is cell-based. The settings on record: Enterococcus faecalis, read-out: minimum inhibitory concentration (MIC). In short, it runs like this:
as §1

A further assay concerns E. faecium A491(Amp^R). Nature of the assay: In vitro MIC, agar dilution. The format is cell-based. The settings on record: Enterococcus faecium, read-out: minimum inhibitory concentration (MIC). In short, it runs like this:
as §1
(In agar dilution, organisms are placed on agar that contains the substance at set levels.)

The next assay has as its system P. aeruginosa ATCC 27853. Nature of the assay: In vitro MIC, agar dilution. The format is cell-based. The settings on record: Pseudomonas aeruginosa, ATCC27853, read-out: minimum inhibitory concentration (MIC). An outline of the steps:
as §1

The next assay deals with S. aureus ATCC 29213. Nature of the assay: In vitro MIC, agar dilution. The settings on record: Staphylococcus aureus, ATCC29213, read-out: minimum inhibitory concentration (MIC). It is filed as cell-based. An outline of the steps: as §1
Assay [1] has as its system S. aureus ATCC 33593(Meth^R). Nature of the assay: In vitro MIC, agar dilution. It is filed as cell-based. The settings on record: Staphylococcus aureus, ATCC33593, read-out: minimum inhibitory concentration (MIC). An outline of the steps: as §1
Assay [2] deals with S. aureus Col(Meth^R)(lac^-). As to the kind of experiment: In vitro MIC, agar dilution. The format is cell-based. The settings on record: Staphylococcus aureus, read-out: minimum inhibitory concentration (MIC). In short, it runs like this:
(§2)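 Two-fold dilutions (128 to ≤0.25 μg/mL, in duplicate) were poured into Mueller-Hinton agar. Log-phase broth cultures were spot-inoculated at about 10^4 cfu per spot and incubated 35-36°C for 16-20 hours; the MIC was the lowest concentration inhibiting growth. Col is a high-level PBP2a producer; Col 8A is its isogenic PBP2a-lacking partner.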

The subject of assay [3] is S. aureus Col8A(Meth^S)(lac^-). As to the kind of experiment: In vitro MIC, agar dilution. The format is cell-based. The settings on record: Staphylococcus aureus; S. aureus Col8A(Meth^S)(lac^-); read-out: minimum inhibitory concentration (MIC). In short, it runs like this:
as §2

Assay [4] relates to S. aureus strain ATCC 13709 (methicillin-susceptible). Nature of the assay: Murine model for lethal bacteremic peritonitis. The format is in vivo, female Swiss-Webster mice. The settings on record: Staphylococcus aureus, ATCC13709, SC, 72 h. In short, it runs like this:
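Female Swiss-Webster mice were challenged IP with an LD100 inoculum in 7% hog gastric mucin, then given test drug subcutaneously in twofold increments (0.01–512 mg/kg) as two equal doses at challenge and 2 h later, 10 mice per group. Survival was scored at 72 h; PD50 (total mg/kg) was derived by probit.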

Another assay deals with MRSA strains. The settings on record: in words, reported in background; cited from earlier work.

Broadly, the ED50 is the dose at which the effect has come halfway, by size or by number of responders. With `C[C@@H](O)[C@H]1C(=O)N2C(C(=O)O)=C(SCCN=CN)C[C@H]12` [Imipenem, imipenem, reference compound], the MIC in the assay on E. faecalis ATCC 29212 was not above 0.25 µg/mL; with E. faecalis VanB(Van^R) it was 0.5 µg/mL (≈ 1.67 µM); with E. faecium A491(Amp^R) it was more than 128 µg/mL; in the assay with P. aeruginosa ATCC 27853 it was 1 µg/mL (≈ 3.34 µM); in the assay on S. aureus ATCC 29213, not above 0.25 µg/mL; in assay [1] it was 32 µg/mL (≈ 107 µM). For the same compound, the MIC in assay [2] was 32 µg/mL (≈ 107 µM); in [3], not above 0.25 µg/mL. In addition, the responders at 0.039 mg/kg in [4] (Dose 0.039 mg/kg, read-out: Survivors) came out at 30%. Further, in assay [4] (Dose 0.078 mg/kg, read-out: Survivors), the responders at 0.078 mg/kg is 60%. Further, the responders at 0.156 mg/kg in assay [4] (Dose 0.156 mg/kg, read-out: Survivors) amounted to 100%. For the same compound, the responders at 0.3125 mg/kg in assay [4] (Dose 0.3125 mg/kg, read-out: Survivors) was 100%. Further, in [4] (Dose 0.625 mg/kg, read-out: Survivors), the responders at 0.625 mg/kg was 100%. Moreover, the ED50 in assay [4] (two equal doses, IP challenge, read-out: ED50) stood at 0.06 mg/kg. For the same compound, the “activity against MRSA strains” value in the assay on MRSA strains is listed as “active against a few MRSA strains”.
